From US8829194B2, “Crystalline forms of the sodium salt of (4-{4-[5-(6-trifluoromethyl-pyridin-3-ylamino)-pyridin-2-yl]-phenyl}-cyclohexyl)-acetic acid” (Novartis AG, priority 2010, dated 2014) come the findings set out here.

Common to all, as to assay type: physicochemical
The nature of data set [1]: Humidity microbalance analysis (VTI), moisture sorption at 25° C. The settings on record: for hygroscopicity / moisture uptake in words: variations in humidity. From the text: Thus, Modification C retains a stable weight from 0% relative humidity to 80% relative humidity while Modification A loses water with decreasing humidity and gains moisture with increasing humidity. With Modification C, a re-hydration step and the possible variability in water content between batches may thus be eliminated.
Modification N is particularly suitable for industrial scale-up. It is a crystalline anhydrous form.
Modification O is particularly suitable for industrial scale-up. It is a crystalline anhydrous form.

Data set [2] is described as follows: Solubility in common process solvents.
The nature of data set [3]: Water loss as a function of temperature by TG/DTA (loss on drying, thermal transitions). Conditions: for Loss On Drying (LOD) (%): total water loss by thermogravimetry, rt-295° C., 10°/min; for LOD (thermal transitions): DTA signals, temperature at which the water is lost. The text has this:
(ii) Thermogravimetric/Differential Thermal Analysis (TG/DTA) […]
The data listed below show the total water loss (LOD by thermogravimetry (TG)) and thermal transitions (DTA signals) show the temperature at which the water is lost.

The nature of data set [4]: Vacuum thermogravimetric analysis (VTGA): drying and re-exposure to ambient conditions. The settings on record: for hygroscopicity in words: concluded from VTGA re-exposure; for time until sample mass decreases to a steady value (drying complete): vacuum 50 mbar, 50° C., wet solid. How it is done:
The wet solid obtained by filtering the crystallization slurry is placed in a cup placed in a cell (i.e., a small chamber) and suspended form a microbalance; vacuum is applied to the cell, and the chamber is subsequently heated. The sample mass is monitored and recorded continuously, indicating when the sample drying is complete and if moisture uptake occurs when the cell is opened to the ambient atmosphere.
1.1149 g of Modification A solid, 0.089 g of distilled water and 10 mL of acetonitrile are added to a glass vial. The mixture is stirred vigorously at 20° C. for 18 hours. The mixture is filtered using vacuum and the wet cake is dried in a VTGA cell at approximately 50° C. and 20 mbar for approximately 5 hours.
1.2137 g of Modification A solids and 15 mL of anhydrous THF, 99.9%, are added to a glass vial. The mixture is heated to 45° C. with vigorous stirring. After slurrying at 45° C. for approximately 19 hours, the sample is filtered by vacuum and the wet cake is dried using the VTGA at approximately 50° C. and 20 mbar for approximately 5 hours.

The nature of data set [5]: Physical stability of the crystalline forms (relative humidity, absorption-desorption isotherm FIG. 1, temperature, storage). Conditions: for physical stability (change into another form): storage / ambient conditions.
Data set [6] is described as follows: Dynamic vapor absorption experiment. The settings on record: dried product of Example 20. How it is done:
2.0 g of Modification A, 17 mL of THF and 17 mL of 200-proof ethanol are added to a jacketed 100-mL glass reactor equipped with an overhead stirrer. The mixture is heated to approximately 50° C. with vigorous agitation to obtain a clear solution. To the warm solution, 3 mL of heptanes are added. In a small glass vial, 0.02 g of seed particles (Modification C, prepared from a previous batch) are added to 1 mL of heptanes, and the slurry is sonicated for approximately 1 minute. The seed slurry is then added to the warm solution to obtain a turbid solution at 50° C. To the turbid solution, 35 mL of heptanes are added as follows. First, 5 mL of heptanes are added over a 30-min period, followed by 75-min hold. Subsequently, an additional 30 m L of heptanes are added over 1.5 hours. The resulting thick slurry is cooled to 10° C. in 50 minutes. The slurry is filtered by vacuum, and the wet cake is washed with 25 mL of anhydrous THF and dried at 65° C. and 10 mbar. […] Based on Karl Fisher analysis, the dried solid contained 3.6% water.

The nature of data set [7]: Hygroscopicity (statement, no method given).

Structures are written as SMILES. Where two headings read alike, the source gives them in different places.

Take `O=C([O-])C[C@H]1CC[C@H](c2ccc(-c3ccc(Nc4ccc(C(F)(F)F)nc4)cn3)cc2)CC1.[Na+]` [Modification A, sodium salt of (4-{4-[5-(6-trifluoromethyl-pyridin-3-ylamino)-pyridin-2-yl]-phenyl}-cyclohexyl)-acetic acid]: the “relative humidity at which moisture gain starts / becomes significant” value in data set [1] is given as 10 % relative humidity. Further, the “Mass uptake (% water absorbed)” value worked out at 0.0% in data set [1] (0 % residual humidity); 3.9% in data set [1] (10 % residual humidity); 12.0% in data set [1] (50 % residual humidity); 12.0% in data set [1] (60 % residual humidity); 17.3% in data set [1] (70 % residual humidity); 17.5% in data set [1] (79 % residual humidity). For the same compound, the “Mass uptake (% water absorbed)” value in data set [1] (90 % residual humidity) stood at 17.4%; in data set [1] (95 % residual humidity), 17.1%. Besides, the “hygroscopicity / moisture uptake in words” value in data set [1] is reported as “takes up much more moisture compared to Modification C”. The “solubility in common process solvents” value in data set [2] was “relatively low”. For the same compound, the “Loss On Drying (LOD) (%)” value in data set [3] came to 9.1%. Moreover, in data set [4] (after drying, 1000 mbar, ambient temperature, plateau at ca. 90 hours), the “total mass gain due to moisture uptake upon opening the cell” value came to 10.4%. For the same compound, the hygroscopicity in words result in data set [4] was “highly hygroscopic”; in data set [5] (sorption profile FIG. 1), “very hygroscopic”. Besides, the “time until sample mass decreases to a steady value (drying complete)” value in data set [4] is “about 18 hours”. Also, in data set [5], the “physical stability (change into another form)” value is listed as “converts to another form in samples that have not been refrigerated”.
Regarding `O=C([O-])C[C@H]1CC[C@H](c2ccc(-c3ccc(Nc4ccc(C(F)(F)F)nc4)cn3)cc2)CC1.[Na+]` [Modification C, sodium salt of (4-{4-[5-(6-trifluoromethyl-pyridin-3-ylamino)-pyridin-2-yl]-phenyl}-cyclohexyl)-acetic acid], the “Mass uptake (% water absorbed)” value in data set [1] (0 % residual humidity) was 0.0%; in data set [1] (10 % residual humidity), 0.0%; in data set [1] (50 % residual humidity), 0.1%; in data set [1] (60 % residual humidity), 0.2%; in data set [1] (70 % residual humidity) it was 0.4%; in data set [1] (79 % residual humidity), 0.8%. The “Mass uptake (% water absorbed)” value is on record as 12.0% in data set [1] (90 % residual humidity) and 15.6% in data set [1] (95 % residual humidity). In addition, the “relative humidity at which moisture gain starts / becomes significant” value in data set [1] (listed as Form C) was > 80 % relative humidity. The “hygroscopicity / moisture uptake in words” value in data set [1] is reported as “does not lose or gain moisture”. Moreover, the “LOD (thermal transitions)” value in data set [3] (listed as C) and in data set [3] (listed as modification C) was 126 °C throughout. The “Loss On Drying (LOD) (%)” value in data set [3] worked out at 2.8%. The hygroscopicity in words entry is given as “much lower hygroscopicity than Modification A” in data set [6] and “not hygroscopic” in data set [4] (listed as Form C). In addition, the “mass uptake of moisture” value in data set [6] (from 0 to 80% relative humidity) stood at 0.3%. The “mass change upon opening the cell to the ambient environment” value in data set [4] (Example 17, after drying at 50° C. and 20 mbar, 30%-56% relative humidity) is given as “no mass change occurs”. Further, in data set [4] (Example 18, approximately 15 hours at 20° C. and 43-59% relative humidity), the “mass gain when the dried solid was exposed to air” value is reported as “No mass gain was observed”. Moreover, the “sample mass change upon opening the cell” value in data set [4] (after drying, 1000 mbar, ambient temperature) is on record as “the sample mass does not change”. Also, the “time until sample mass decreases to a steady value (drying complete)” value in data set [4] was “less than 1 hours”. Moreover, the “temperature above which water is lost” value in data set [5] (heating) was “over 85 °C”. In addition, the “physical stability (change into another form)” value in data set [5] is “does not change into another form under ambient conditions”.
With `O=C([O-])C[C@H]1CC[C@H](c2ccc(-c3ccc(Nc4ccc(C(F)(F)F)nc4)cn3)cc2)CC1.[Na+]` [Modification K, sodium salt of (4-{4-[5-(6-trifluoromethyl-pyridin-3-ylamino)-pyridin-2-yl]-phenyl}-cyclohexyl)-acetic acid], the hygroscopicity in words result in data set [7] is on record as “low hygroscopicity”. For the same compound, in data set [3] (listed as K), the “LOD (thermal transitions)” value was found to be 134.5 °C and the “Loss On Drying (LOD) (%)” value is listed as 2.4%.
